This experiment relates to P388 leukemia ip, CD2F1 mice, survival T/C. Briefly: NCI In Vivo Anticancer Drug Screen. Data for tumor model P388 Leukemia (intraperitoneal) in CD2F1 (CDF1) mice. To be noted: endpoint: median survival time, higher = longer survival. In a few lines: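 Mice carrying the transplanted tumor received test compound or vehicle. Survival was recorded in each group, and the value is the treated-group measurement divided by that of the vehicle-treated control group.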

Setting [1] is: dose: 60.0 mg/kg/injection, schedule: Q01DX005 (ip), vehicle: saline with Tween-80.
The mark [2] stands for this setting: dose: 120.0 mg/kg/injection, schedule: Q01DX005 (ip), vehicle: saline with Tween-80.
The mark [3] stands for this setting: dose: 240.0 mg/kg/injection, schedule: Q01DX005 (ip), vehicle: saline with Tween-80.
Setting [4] is: dose: 50.0 mg/kg/injection, schedule: Q01DX005 (ip), vehicle: saline with Tween-80.
The mark [5] stands for this setting: dose: 100.0 mg/kg/injection, schedule: Q01DX005 (ip), vehicle: saline with Tween-80.
[6] abbreviates: dose: 200.0 mg/kg/injection, schedule: Q01DX005 (ip), vehicle: saline with Tween-80.
Where [7] appears, read: dose: 60.0 mg/kg/injection, schedule: Q01DX005 (ip), vehicle: Klucel (hydroxypropylcellulose) (HPC).
The mark [8] stands for this setting: dose: 120.0 mg/kg/injection, schedule: Q01DX005 (ip), vehicle: Klucel (hydroxypropylcellulose) (HPC).
Where [9] appears, read: dose: 240.0 mg/kg/injection, schedule: Q01DX005 (ip), vehicle: Klucel (hydroxypropylcellulose) (HPC).
The mark [10] stands for this setting: dose: 12.5 mg/kg/injection, schedule: Q01DX005 (ip), vehicle: saline with Tween-80.
The mark [11] stands for this setting: dose: 50.0 mg/kg/injection, schedule: Q01DX009 (ip), vehicle: saline with Tween-80.
[12] abbreviates: dose: 100.0 mg/kg/injection, schedule: Q01DX009 (ip), vehicle: saline with Tween-80.
[13] abbreviates: dose: 200.0 mg/kg/injection, schedule: Q01DX009 (ip), vehicle: saline with Tween-80.
The mark [14] stands for this setting: dose: 400.0 mg/kg/injection, schedule: Q01DX009 (ip), vehicle: saline with Tween-80.

The values that follow come from PubChem BioAssay AID330 (DTP/NCI, 2004).

Several values for one entry are separate records, joined by “and”; a condition that tells them apart may be missing. Identical values can stand only once. Inconclusive results and toxic doses are left out.

As to `Cc1cccc(CC(C)(O)Cc2cccc(C)n2)n1`, the T/C is 100 % of control (dose: 50.0 mg/kg/injection, schedule: Q01DX009 (ip), vehicle: other); 100 % of control (dose: 100.0 mg/kg/injection, schedule: Q01DX009 (ip), vehicle: other); 122 % of control (dose: 200.0 mg/kg/injection, schedule: Q01DX009 (ip), vehicle: other).

On to `COc1cc(C2C3=C(CCC3)Oc3cc4c(cc32)OCO4)cc(OC)c1OC` (configuration not stated), for which the T/C reads like this: under setting [1], 91 % of control; under setting [2], 86 % of control; under setting [3], 86 % of control.

On to `O=C(CBr)Oc1ccc([N+](=O)[O-])cc1`, for which the T/C is 102 % of control under setting [4], 100 % of control under setting [5] and 100 % of control under setting [6].

For the molecule `O=C(O)/C(=N/NC(=O)c1ccccc1)c1ccccc1`, the T/C was 98 % of control (dose: 100.0 mg/kg/injection, schedule: Q04DX002 (ip), vehicle: Klucel (hydroxypropylcellulose) (HPC)); 98 % of control (dose: 200.0 mg/kg/injection, schedule: Q04DX002 (ip), vehicle: Klucel (hydroxypropylcellulose) (HPC)); 92 % of control (dose: 400.0 mg/kg/injection, schedule: Q04DX002 (ip), vehicle: Klucel (hydroxypropylcellulose) (HPC)).

As to `O=C1OCC(c2ccno2)=C1O`, the T/C reads like this: under setting [7], 100 % of control; under setting [8], 100 % of control; under setting [9], 104 % of control.

For the molecule `CCC=Nc1c(O)cc(-c2ccccc2)n(C)c1=O`, the T/C by setting is: under setting [1], 94 % of control; under setting [2], 100 % of control.

As for `CC(C)CC(=O)CC(c1ccccc1)C(C(=O)/C=C/c1ccccc1)C(C)C` (configuration not stated), the T/C under setting [10] is 94 % of control; the T/C (dose: 25.0 mg/kg/injection, schedule: Q01DX005 (ip), vehicle: saline with Tween-80) was 94 % of control; the T/C under setting [4] is 87 % of control and 92 % of control.

Turning to `CC1(C)NN=C([N+](=O)[O-])C1c1ccccc1` (configuration not stated), the T/C is, setting by setting: under setting [1], 107 % of control; under setting [2], 111 % of control; under setting [3], 107 % of control.

`CC1CCN(C(=O)Nc2c(Cl)cccc2Cl)CC1`: the T/C is, setting by setting: under setting [7], 99 % of control; under setting [8], 101 % of control; under setting [9], 94 % of control.

As to `CCN(CC)C(=O)CSc1ccc(Cl)nn1`, the T/C was 97 % of control under setting [11], 98 % of control under setting [12] and 94 % of control under setting [13].

With `COc1cc2c(C)c3ccccc3c(C)c2c2ccccc12`, the T/C reads like this: (dose: 100.0 mg/kg/injection, schedule: Q01DX001 (ip), vehicle: Klucel (hydroxypropylcellulose) (HPC)) 101 % of control; (dose: 200.0 mg/kg/injection, schedule: Q01DX001 (ip), vehicle: Klucel (hydroxypropylcellulose) (HPC)) 110 % of control; (dose: 400.0 mg/kg/injection, schedule: Q01DX001 (ip), vehicle: Klucel (hydroxypropylcellulose) (HPC)) 105 % of control.

As for `O=C(NC(Cc1ccccc1)C(=O)O)OCc1ccccc1` (configuration not stated), the T/C reads like this: (dose: 50.0 mg/kg/injection, schedule: Q01DX005 (ip), vehicle: Klucel (hydroxypropylcellulose) (HPC)) 100 % of control; (dose: 100.0 mg/kg/injection, schedule: Q01DX005 (ip), vehicle: Klucel (hydroxypropylcellulose) (HPC)) 92 % of control; (dose: 177.0 mg/kg/injection, schedule: Q01DX009 (ip), vehicle: saline with Tween-80) 107 % of control; (dose: 200.0 mg/kg/injection, schedule: Q01DX005 (ip), vehicle: Klucel (hydroxypropylcellulose) (HPC)) 102 % of control; (dose: 266.0 mg/kg/injection, schedule: Q01DX009 (ip), vehicle: saline with Tween-80) 109 % of control; under setting [14], 116 % of control.

Regarding `CCOC1CC(C)(O)Cc2cc3c(c(O)c21)C(=O)c1c(O)cc2c(c1C3=O)OC1OC2(C)C(O)C(N(C)C)C1O` (configuration not stated), the T/C reads like this: (dose: 2.5 mg/kg/injection, schedule: Q01DX009 (ip), vehicle: other) 150 % of control and 156 % of control; (dose: 3.25 mg/kg/injection, schedule: Q01DX009 (ip), vehicle: other) 151 % of control; (dose: 5.0 mg/kg/injection, schedule: Q01DX009 (ip), vehicle: other) 166 % of control and 207 % of control; (dose: 6.5 mg/kg/injection, schedule: Q01DX009 (ip), vehicle: other) 163 % of control; (dose: 10.0 mg/kg/injection, schedule: Q01DX009 (ip), vehicle: other) 178 % of control and 205 % of control; (dose: 13.0 mg/kg/injection, schedule: Q01DX009 (ip), vehicle: other) 93 % of control. Besides, the T/C (dose: 20.0 mg/kg/injection, schedule: Q01DX009 (ip), vehicle: other) was 87 % of control.

Regarding `[Fe].[c-]1[c-][c-][c-](Cn2nnc3ccccc32)[c-]1.[c-]1[c-][c-][cH-][c-]1`, the T/C reads like this: under setting [11], 105 % of control; under setting [12], 102 % of control; under setting [13], 95 % of control.

Turning to `CCOC(=O)Nc1cc2c(c(N)n1)N=C(c1ccc(C)c(C)c1)CN2`, the T/C is 122 % of control (dose: 3.12 mg/kg/injection, schedule: Q01DX005 (ip), vehicle: saline with Tween-80) and 88 % of control under setting [10].

For `CCCCN(S(=O)(=O)c1ccc(C)cc1)S(=O)(=O)c1ccc(C)cc1`, the T/C by setting is: under setting [12], 120 % of control; under setting [13], 106 % of control; under setting [14], 87 % of control.

As to `Cn1c(=O)n(-c2ccccc2)c(=O)c2ccccc21`, the T/C reads like this: (dose: 100.0 mg/kg/injection, schedule: Q01DX009 (ip), vehicle: Klucel (hydroxypropylcellulose) (HPC)) 100 % of control; (dose: 200.0 mg/kg/injection, schedule: Q01DX009 (ip), vehicle: Klucel (hydroxypropylcellulose) (HPC)) 110 % of control; (dose: 400.0 mg/kg/injection, schedule: Q01DX009 (ip), vehicle: Klucel (hydroxypropylcellulose) (HPC)) 109 % of control.

As to `COC(=O)C1(CC(=O)c2ccc(C)cc2)NC(=S)NC(=O)C1C#N` (configuration not stated), the T/C is, setting by setting: (dose: 60.0 mg/kg/injection, schedule: Q01DX005 (ip), vehicle: saline) 100 % of control; (dose: 120.0 mg/kg/injection, schedule: Q01DX005 (ip), vehicle: saline) 104 % of control; (dose: 240.0 mg/kg/injection, schedule: Q01DX005 (ip), vehicle: saline) 100 % of control.

Turning to `COC(=O)/C(=C/C=C(c1ccccc1)c1ccccc1)N(C(C)=O)C(C)=O`, the T/C (dose: 100.0 mg/kg/injection, schedule: Q01DX001 (ip), vehicle: saline with Tween-80) was 104 % of control; the T/C (dose: 200.0 mg/kg/injection, schedule: Q01DX001 (ip), vehicle: saline with Tween-80) was 104 % of control; the T/C (dose: 400.0 mg/kg/injection, schedule: Q01DX001 (ip), vehicle: saline with Tween-80) is 96 % of control.

`O=C1CC(c2ccc(Cl)cc2)C(c2ccc(Cl)cc2)C1C(=O)OC1CCCCC1` (configuration not stated): the T/C (dose: 1.56 mg/kg/injection, schedule: Q01DX001 (ip), vehicle: Klucel (hydroxypropylcellulose) (HPC)) was 110 % of control; the T/C (dose: 3.13 mg/kg/injection, schedule: Q01DX001 (ip), vehicle: Klucel (hydroxypropylcellulose) (HPC)) is 107 % of control; the T/C (dose: 6.25 mg/kg/injection, schedule: Q01DX001 (ip), vehicle: Klucel (hydroxypropylcellulose) (HPC)) is 107 % of control and 89 % of control.

Take `O=[N+]([O-])OC1CCCC(O[N+](=O)[O-])c2c1n([O-])c1ccccc1[n+]2=O` (configuration not stated): the T/C is 95 % of control under setting [4], 89 % of control under setting [5] and 92 % of control under setting [6].

Consider `COc1ccc2c(c1)C(=O)[C@]1(C)C3(C)OC(=O)C(c4ccccc43)[C@]21C` (some centres not stated), for which the T/C is 110 % of control under setting [1], 105 % of control under setting [2] and 98 % of control under setting [3].

As to `NCCc1ccncc1`, the T/C was 98 % of control (dose: 60.0 mg/kg/injection, schedule: Q01DX005 (ip), vehicle: suspension in saline) and 94 % of control (dose: 120.0 mg/kg/injection, schedule: Q01DX005 (ip), vehicle: suspension in saline).

As to `CC1(C)N=C(NN=C2CCCCC2)SP1(=O)NCC(=O)O` (configuration not stated), the T/C under setting [7] is 101 % of control, the T/C under setting [8] is 100 % of control and the T/C under setting [9] is 101 % of control.

With `Cc1onc(-c2c(Cl)cccc2Cl)c1C(=O)Nc1ccc(Cl)c(Cl)c1Cl`, the T/C is 96 % of control under setting [7], 93 % of control under setting [8] and 92 % of control under setting [9].

On to `O=Cc1ccc([N+](=O)[O-])s1`, for which the T/C (dose: 50.0 mg/kg/injection, schedule: Q01DX009 (ip), vehicle: saline) is 120 % of control.

`CC(C)(C)N(Cc1ccccc1)C(O)Cc1c(-c2ccccc2)c(-c2ccccc2)c2n1CCC2` (configuration not stated): the T/C runs as follows: under setting [7], 89 % of control; under setting [8], 88 % of control.
